Results reported in ChEMBL document CHEMBL5247663, “Evaluating the druggability of TrmD, a potential antibacterial target, through design and microbiological profiling of a series of potent TrmD inhibitors” (Bioorg Med Chem Lett, 2023).
pIC50, pKd: −log10 of the molar value. Converted amounts (≈) assume the structure as drawn.

Tests used:
[1] = biological target: T1, tRNA (guanine-N(1)-)-methyltransferase (Escherichia coli (strain K12), UniProt P0A873); experiment: Inhibition of Escherichia coli TrmD
T1 sequence (P0A873 whole entry): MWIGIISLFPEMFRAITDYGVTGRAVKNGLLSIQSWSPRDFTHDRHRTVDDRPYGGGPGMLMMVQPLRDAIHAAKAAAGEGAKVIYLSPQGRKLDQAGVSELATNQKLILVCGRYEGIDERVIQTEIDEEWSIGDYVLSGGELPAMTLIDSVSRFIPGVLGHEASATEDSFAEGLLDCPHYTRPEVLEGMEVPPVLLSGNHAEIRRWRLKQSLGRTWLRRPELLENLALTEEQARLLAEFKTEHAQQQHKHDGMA

[2] = Lipophilicity, logD of the compound at pH 7.4; assay type: physicochemical; settings: buffer
Haemophilus influenzae = experiment: Antibacterial activity against Haemophilus influenzae ATCC 49247 assessed as inhibition of bacterial growth; assay type: functional
Escherichia coli [3] = experiment: Antibacterial activity against efflux-defective Escherichia coli N43 deficit of AcrAB-TolC assessed as inhibition of bacterial growth; assay type: functional
Escherichia coli [4] = experiment: Antibacterial activity against efflux-defective Escherichia coli N43 deficit of AcrAB-TolC assessed as inhibition of bacterial growth in presence of 4 ug/ml membrane-permeabilising agent, polymyxin B; assay type: functional
Neisseria gonorrhoeae = experiment: Antibacterial activity against Neisseria gonorrhoeae ATCC 49226 assessed as inhibition of bacterial growth; assay type: functional
Acinetobacter baumannii = experiment: Antibacterial activity against Acinetobacter baumannii NCTC 13420 assessed as inhibition of bacterial growth; assay type: functional
Bacillus subtilis = experiment: Antibacterial activity against Bacillus subtilis ATCC 6633 assessed as inhibition of bacterial growth; assay type: functional
Francisella tularensis = experiment: Antibacterial activity against Francisella tularensis-Schu S4 assessed as inhibition of bacterial growth; assay type: functional
Pseudomonas aeruginosa = experiment: Antibacterial activity against Pseudomonas aeruginosa ATCC 27853 assessed as inhibition of bacterial growth; assay type: functional
[5] = test system: Staphylococcus epidermidis; experiment: Antibacterial activity against Staphylococcus epidermidis ATCC 12228 assessed as inhibition of bacterial growth; assay type: functional
Burkholderia cepacia = experiment: Antibacterial activity against Burkholderia cepacia ATCC 25416 assessed as inhibition of bacterial growth; assay type: functional
Enterococcus faecium = experiment: Antibacterial activity against Enterococcus faecium ATCC 19434 assessed as inhibition of bacterial growth; assay type: functional
Streptococcus pneumoniae = experiment: Antibacterial activity against Streptococcus pneumoniae ATCC 49619 assessed as inhibition of bacterial growth; assay type: functional
Moraxella catarrhalis = experiment: Antibacterial activity against Moraxella catarrhalis ATCC 25240 assessed as inhibition of bacterial growth; assay type: functional
Yersinia pestis = experiment: Antibacterial activity against Yersinia pestis CO92 assessed as inhibition of bacterial growth; assay type: functional
Coxiella burnetii = experiment: Antibacterial activity against Coxiella burnetii Nine Mile assessed as inhibition of bacterial growth; assay type: functional
[6] = Cytotoxicity against human HepG2 cells; assay type: toxicity, cell-based
[7] = biological target: T1, tRNA (guanine-N(1)-)-methyltransferase; experiment: Binding affinity to Escherichia coli TrmD by surface plasmon resonance assay
Escherichia coli [8] = experiment: Antibacterial activity against Escherichia coli W4573 harboring functional AcrAB-TolC assessed as inhibition of bacterial growth

SMILES | pIC50 [1] | MIC (Haemophilus influenzae) [µg/mL] | MIC (Escherichia coli [3]) [µg/mL] | MIC (Escherichia coli [4]) [µg/mL] | further results
NC(=O)c1ccc2[nH]ccc2c1 | 3.80 |  |  |  | 
NC(=O)c1ccc(N)cc1 | 3.17 |  |  |  | 
NC(=O)c1cnc2c(ccn2CC(=O)NC2CNC2)c1 | 5.35 |  |  |  | 
NC(=O)c1cnc2c(ccn2CC(=O)NC2CCNCC2)c1 | 5.19 |  |  |  | 
NC(=O)c1ccc(NCc2cccc(N3CCNC(C(F)(F)F)C3)c2)nc1 (centres undefined) | < 5.00 |  |  |  | 
NCc1ccc(Cn2ccc3cc(C(N)=O)ccc32)cc1 | 4.89 |  |  |  | 
CC(C)(C)CNc1ccc(C(N)=O)cn1 | 6.85 |  |  |  | 
NC(=O)c1ccc(NC2(c3cccc(N4CCNCC4)c3)CC2)nc1 | 7.96 | 1020 (≈ 3030 µM) | > 1020 | > 1020 | logD [2]: 1.4
NCc1cccc(CNc2ccc(C(N)=O)cn2)c1 | 5.85 |  |  |  | 
CC(C)[C@H]1CN(C(=O)Cn2c(C3CC3)cc3cc(C(N)=O)cnc32)CCN1 | 7.02 | 1020 (≈ 2770 µM) | > 1020 | > 1020 | 
CN(C(=O)Cn1c(C2CC2)cc2cc(C(N)=O)cnc21)[C@@H]1C[C@H]2CC[C@@H](C1)N2 | 7.44 | > 512 | > 512 | > 1020 | logD [2]: 0.2
NC(=O)c1cnc2c(c1)cc(C1CC1)n2CC(=O)N1CCNCC1 | 7.89 |  | > 1020 | > 1020 | logD [2]: -0.1; MIC (Neisseria gonorrhoeae): > 256 µg/mL; MIC (Acinetobacter baumannii): > 256 µg/mL; MIC (Bacillus subtilis): > 256 µg/mL; MIC (Francisella tularensis): > 256 µg/mL; MIC (Pseudomonas aeruginosa): > 256 µg/mL; MIC [5]: > 256 µg/mL; MIC (Burkholderia cepacia): > 256 µg/mL; MIC (Enterococcus faecium): > 256 µg/mL; MIC (Streptococcus pneumoniae): > 256 µg/mL; MIC (Moraxella catarrhalis): > 256 µg/mL; MIC (Yersinia pestis): 256 µg/mL (≈ 782 µM); MIC (Coxiella burnetii): > 64 µg/mL; CC50 [6]: > 256 µg/mL
C[C@@H](Nc1ccc(C(N)=O)cn1)c1ccccc1 | 4.32 |  |  |  | 
CN1CCN(C(=O)Cn2c(C3CC3)cc3cc(C(N)=O)cnc32)CC1 | 7.42 | > 1020 | > 512 | > 512 | logD [2]: 2.7
NC(=O)c1ccc2nc(N)sc2c1 | 3.82 |  |  |  | pKd [7]: 3.38
NC(=O)c1ccc(NCc2ccccc2)nc1 | 5.49 |  |  |  | 
CN(C(=O)Cn1ccc2cc(C(N)=O)cnc21)C1CCNCC1 | 6.08 |  |  |  | 
CC(C)(CNc1ccc(C(N)=O)cn1)c1cccc(CN)c1 | 8.05 | 256 (≈ 858 µM) | > 1020 | > 1020 | MIC (Neisseria gonorrhoeae): > 256 µg/mL; MIC (Acinetobacter baumannii): > 256 µg/mL; MIC (Bacillus subtilis): > 256 µg/mL; MIC (Francisella tularensis): > 256 µg/mL; MIC (Pseudomonas aeruginosa): > 256 µg/mL; MIC [5]: > 256 µg/mL; MIC (Burkholderia cepacia): > 256 µg/mL; MIC (Enterococcus faecium): > 256 µg/mL; MIC (Streptococcus pneumoniae): > 256 µg/mL; MIC (Moraxella catarrhalis): > 256 µg/mL; MIC (Yersinia pestis): 256 µg/mL (≈ 858 µM); MIC (Coxiella burnetii): > 64 µg/mL; CC50 [6]: > 256 µg/mL
CN1CCC(N(C)C(=O)Cn2c(C3CC3)cc3cc(C(N)=O)cnc32)CC1 | 7.41 | > 256 | > 512 | > 1020 | 

SMILES | pIC50 [1] | MIC (Haemophilus influenzae) [µg/mL] | MIC (Escherichia coli [3]) [µg/mL] | MIC (Escherichia coli [4]) [µg/mL] | further results
CC(C)(CNc1ccc(C(N)=O)cn1)c1ccccc1 | 7.57 | 512 (≈ 1900 µM) | 512 (≈ 1900 µM) | 256 | logD [2]: 3; MIC (Neisseria gonorrhoeae): 128 µg/mL (≈ 475 µM); MIC (Acinetobacter baumannii): > 256 µg/mL; MIC (Bacillus subtilis): > 256 µg/mL; MIC (Francisella tularensis): > 256 µg/mL; MIC (Pseudomonas aeruginosa): > 256 µg/mL; MIC [5]: > 256 µg/mL; MIC (Burkholderia cepacia): > 256 µg/mL; MIC (Enterococcus faecium): > 256 µg/mL; MIC (Streptococcus pneumoniae): > 256 µg/mL; MIC (Moraxella catarrhalis): 128 µg/mL (≈ 475 µM); MIC (Yersinia pestis): 256 µg/mL (≈ 950 µM); MIC (Coxiella burnetii): > 64 µg/mL; CC50 [6]: > 128 µg/mL
NC(=O)c1ccc(NC2CCCC2)nc1 | 6.96 |  |  |  | 
NC(=O)c1cnc2c(c1)cc(C1CC1)n2CC(=O)N1CCNC(=O)C1 | 6.92 | > 512 | > 1020 | > 1020 | 
NC(=O)c1ccc(NC2(c3ccccc3)CC2)nc1 | 6.57 |  |  |  | 
NCc1ccc(Cn2ccc3cc(C(N)=O)cnc32)cc1 | 5.72 |  |  |  | 
NC(=O)c1ccc(N)cn1 | < 3.00 |  |  |  | 
C[C@H](Nc1ccc(C(N)=O)cn1)c1ccccc1 | 5.89 |  |  |  | 
CC(C)(Nc1ccc(C(N)=O)cn1)c1ccccc1 | 5.68 |  |  |  | 
OCc1cc(-c2cccs2)[nH]n1 | 3.49 |  |  |  | pKd [7]: 3.59
NCc1ccc(Cn2c(C3CC3)cc3cc(C(N)=O)cnc32)cc1 | 6.51 | > 1020 | 1020 (≈ 3200 µM) | 1020 | logD [2]: 1.4
CNC(=O)Cn1ccc2cc(C(N)=O)cnc21 | 4.19 |  |  |  | 
CC(C)(CNc1ccc(C(N)=O)cn1)c1cccc(NC2CNC2)c1 | 6.89 | > 512 | > 1020 | > 1020 | logD [2]: 1
NC(=O)c1cnc2c(ccn2CC(=O)N2CCNCC2)c1 | 6.10 |  |  |  | 
NC(=O)c1ccc(NCc2cccc(N3CCNCC3)c2)nc1 | 6.51 | 1020 (≈ 3290 µM) | > 1020 | > 1020 | logD [2]: 1
NCc1ccc(CNc2ccc(C(N)=O)cn2)cc1 | 5.64 |  |  |  | 
CN(C(=O)Cn1c(C2CC2)cc2cc(C(N)=O)cnc21)C1CCNCC1 | 7.43 | > 1020 | > 256 | > 512 | logD [2]: -0.2
CC(C)(CNc1ccc(C(N)=O)cn1)c1cccc(N2CCNCC2)c1 | 7.30 | > 1020 | 1020 (≈ 2900 µM) | 1020 | logD [2]: 1.6
NC(=O)c1ccc(N)nc1 [6-AMINONICOTINAMIDE] | 4.59 |  |  |  | pKd [7]: 5.89
CC[C@H]1OC(=O)[C@H](C)[C@@H](O[C@H]2C[C@@](C)(OC)[C@@H](O)[C@H](C)O2)[C@H](C)[C@@H](O[C@@H]2O[C@H](C)C[C@H](N(C)C)[C@H]2O)[C@](C)(O)C[C@@H](C)C(=O)[C@H](C)[C@@H](O)[C@]1(C)O [ERYTHROMYCIN] |  | 4 (≈ 5.45 µM) | 8 (≈ 10.9 µM) | 0.5 | MIC (Escherichia coli [8]): 64 µg/mL (≈ 87.2 µM)
